Laboratory results taken from patent US4429127A, “Quinoline carboxylic acid derivative” (Kyorin Pharmaceutical Co., Ltd., priority 1981, dated 1984).
Converted amounts (≈) assume the structure as drawn. Read-outs that look alike come from different tables or passages of the source.

Experiments:
[1] = Metabolism when administered to animals; format: in vivo
[2] = Tissue levels after a single oral administration in rats (microbiological assay); format: in vivo; settings: rat; for concentration at 0.5 h / concentration at 1 h / concentration at 2 h / concentration at 4 h / concentration at 6 h: 50 mg/kg oral
Method: (§1) Tissue levels of the compound (I) after a single oral administration of 50 mg/kg in mice and rats
(§2) Tissue levels of the compound (I) were determined by micro-biological assay which employed the thin layer cup method with Bacillus subtilis ATCC6633 as the test organism. Serum and tissue levels of the compound (I) were calculated with the standard curve prepared in normal serum of the test animal species and M/15 phosphate buffer (pH 7.5), respectively.

[3] = system: Staphylococcus aureus Smith; assay: In vivo antibacterial activity, systemic infection in mice; set-up: species or system mice (male, ICR)
Method: (§3) The in vivo antibacterial activity of the compound (I) was determined in systemic infection in mice. The systemic infections were produced in male mice ICR (body weight, 19±2 g) by inoculating intraperitoneally with Staphylococcus aureus Smith and E. coli ML4707. The compounds were administered orally in divided doses at 0 and 4 hrs. after infection. The therapeutic effect of drugs was judged from the number of mice surviving after 7 days of observation. A comparison of in vivo antibacterial activity was made on the basis of the […] effective dose (ED50) calculated by the method of Litchfield and Wilcoxon.

[4] = system: E. coli ML4707; assay: as above; set-up: species or system mice (male, ICR); settings: Escherichia coli, ML4707, 168 h; mice, oral at 0 and 4 hrs. after infection; challenge 1.2 × 10^7 cells/animal in saline; 7 days survival; read-out: ED50
Method: as §3

[5] = Acute toxicity in mice; format: in vivo; settings: for LD50 at 168 h: mouse, in vivo, male mice, 7 days observation
Description: Acute toxicity of the compound (I) was examined in mice (ICR strain, 7 weeks old). Observation period was 7 days after a single oral and intravenous administration.

[6] = system: Streptococcus pyogenes IID692; assay: In vitro antibacterial activity (MIC, agar dilution); format: cell-based; settings: Streptococcus pyogenes IID692; inoculum 10^8 cells/ml; read-out: MIC
Method: (§4) The minimum inhibitory concentration (MIC) of the compound (I) was determined by an agar dilution technique (the standard method of Japan Society of Chemotherapy) against standard strains of gram-positive and gram-negative bacteria.
(§5) Inoculum size: 10^8 cells/ml

[7] = system: P. mirabilis IID994; assay: as above; format: cell-based; settings: Proteus mirabilis, inoculum 10^8 cells/ml
Method: as §4, §5

[8] = system: Klebsiella pneumoniae IFO3512; assay: as above; format: cell-based; settings: Klebsiella pneumoniae IFO3512; inoculum 10^8 cells/ml; read-out: MIC
Method: as §4, §5

[9] = system: Bacillus subtilis PCI 219; assay: as above; format: cell-based; settings: PCI219; Bacillus subtilis PCI 219; inoculum 10^8 cells/ml; read-out: MIC
Method: as §4, §5

[10] = system: Enterobacter cloacae IID977; assay: as above; format: cell-based; settings: inoculum 10^8 cells/ml
Method: as §4, §5

[11] = system: P. morganii IID602; assay: as above; format: cell-based; settings: Morganella morganii, inoculum 10^8 cells/ml
Method: as §4, §5

[12] = system: E. coli NIHJ JC-2; assay: as above; format: cell-based; settings: Escherichia coli, NIHJJC2; E. coli NIHJ JC-2; inoculum 10^8 cells/ml; read-out: MIC
Method: as §4, §5

[13] = system: Salmonella enteritidis IID604; assay: as above; format: cell-based; settings: Salmonella enterica; Salmonella enteritidis IID604; inoculum 10^8 cells/ml; read-out: MIC
Method: as §4, §5

[14] = system: Yersinia enterocolitica IID981; assay: as above; format: cell-based; settings: inoculum 10^8 cells/ml
Method: as §4, §5

[15] = system: Acinetobacter enitratus IID876; assay: as above; format: cell-based; settings: inoculum 10^8 cells/ml
Method: as §4, §5

[16] = system: S. pyogenes S-8; assay: as above; format: cell-based; settings: Streptococcus pyogenes, S8; S. pyogenes S-8; inoculum 10^8 cells/ml; read-out: MIC
Method: as §4, §5

[17] = system: Proteus vulgaris IFO3167; assay: as above; format: cell-based; settings: Proteus vulgaris IFO3167; inoculum 10^8 cells/ml; read-out: MIC
Method: as §4, §5

[18] = system: Citrobacter freundii IID976; assay: as above; format: cell-based; settings: inoculum 10^8 cells/ml
Method: as §4, §5

[19] = system: P. aeruginosa IFO12689; assay: as above; format: cell-based; settings: Pseudomonas aeruginosa; P. aeruginosa IFO12689; inoculum 10^8 cells/ml; read-out: MIC
Method: as §4, §5

[20] = system: S. faecalis IID682; assay: as above; format: cell-based; settings: Enterococcus faecalis; S. faecalis IID682; inoculum 10^8 cells/ml; read-out: MIC
Method: as §4, §5

[21] = system: Staphylococcus aureus 209P; assay: as above; format: cell-based; settings: Staphylococcus aureus 209P; inoculum 10^8 cells/ml; read-out: MIC
Method: as §4, §5

[22] = system: Haemophilus influenzae IID986; assay: as above; format: cell-based; settings: Haemophilus influenzae IID986; inoculum 10^8 cells/ml; read-out: MIC
Method: as §4, §5

[23] = system: Serratia marcescens IID618; assay: as above; format: cell-based; settings: inoculum 10^8 cells/ml
Method: as §4, §5

[24] = system: S. aureus IID670 (Terajima); assay: as above; format: cell-based; settings: Staphylococcus aureus; S. aureus IID670 (Terajima); inoculum 10^8 cells/ml; read-out: MIC
Method: as §4, §5

[25] = system: gram-positive bacteria; assay: In vitro antibacterial activity against gram-positive bacteria (in words); format: cell-based
Method: as §4

[26] = Tissue levels after a single oral administration, mice and rats together; format: in vivo; settings: single oral 50 mg/kg
Method: as §1, §2

[27] = kidney, read-out: Kidney concentration
[28] = liver, read-out: Liver concentration
[29] = lung, read-out: Lung concentration
[30] = serum, read-out: Serum concentration

CCn1cc(C(=O)O)c(=O)c2cc(F)c(N3CCN(Cc4ccc(N)cc4)CC3)c(F)c21 [compound (I), 7-[4-(p-aminobenzyl)-1-piperazinyl]-1-ethyl-6,8-difluoro-1,4-dihydro-4-oxoquinoline-3-carboxylic acid]
Metabolism, in words [1]: metabolized in part to 1-ethyl-6,8-difluoro-1,4-dihydro-4-oxo-7-(1-piperazinyl)quinoline-3-carboxylic acid
concentration at 0.5 h [2, 27]: 6600 ng/mL
concentration at 1 h [2, 27]: 6800 ng/mL
concentration at 2 h [2, 27]: 2700 ng/mL
concentration at 4 h [2, 27]: 1000 ng/mL
concentration at 6 h [2, 27]: 300 ng/mL
concentration at 0.5 h [2, 28]: 14000 ng/mL
concentration at 1 h [2, 28]: 15400 ng/mL
concentration at 2 h [2, 28]: 6200 ng/mL
concentration at 4 h [2, 28]: 2200 ng/mL
concentration at 6 h [2, 28]: 800 ng/mL
concentration at 0.5 h [2, 29]: 6000 ng/mL
concentration at 1 h [2, 29]: 8600 ng/mL
concentration at 2 h [2, 29]: 2100 ng/mL
concentration at 4 h [2, 29]: 600 ng/mL
concentration at 0.5 h [2, 30]: 4800 ng/mL
concentration at 1 h [2, 30]: 5300 ng/mL
concentration at 2 h [2, 30]: 1200 ng/mL
concentration at 4 h [2, 30]: 200 ng/mL
concentration at 6 h [2, 30]: 200 ng/mL
Cmax ([2]; serum, rats, single oral 50 mg/kg, read-out: Peak serum level): 5300 ng/mL
Potency superior to nalidixic acid (in vivo) ([3]; S. aureus Smith, versus nalidixic acid): 172 times
In vivo antibacterial activity, in words ([3]; S. aureus Smith, versus nalidixic acid and pipemidic acid): significantly more effective than that of nalidixic acid and pipemidic acid
Potency superior to pipemidic acid (in vivo) ([3]; S. aureus Smith, versus pipemidic acid): 62 times
ED50 ([3]; Staphylococcus aureus, 168 h, mice, oral at 0 and 4 hrs. after infection, challenge 2.4 × 10^5 cells/animal in BHI containing mucin, 7 days survival, read-out: ED50): 3.7 mg/kg
ED50 [4]: 13.8 mg/kg
Acute toxicity, in words ([5]; mice, single oral and intravenous administration): low toxicity
LD50 at 168 h ([5]; iv): 250 to 300 mg/kg
LD50 at 168 h ([5]; po): > 4000 mg/kg
MIC [6]: 0.78 µg/mL (≈ 1.76 µM)
MIC [7]: 1.56 µg/mL (≈ 3.53 µM)
MIC [8]: 0.1 µg/mL (≈ 0.226 µM)
MIC [9]: 0.1 µg/mL (≈ 0.226 µM)
MIC [10]: 1.56 µg/mL (≈ 3.53 µM)
MIC [11]: 1.56 µg/mL (≈ 3.53 µM)
MIC [12]: 0.2 µg/mL (≈ 0.452 µM)
MIC [13]: 1.56 µg/mL (≈ 3.53 µM)
MIC [14]: 1.56 µg/mL (≈ 3.53 µM)
MIC [15]: 0.78 µg/mL (≈ 1.76 µM)
MIC [16]: 0.78 µg/mL (≈ 1.76 µM)
MIC [17]: 1.56 µg/mL (≈ 3.53 µM)
MIC [18]: 1.56 µg/mL (≈ 3.53 µM)
MIC [19]: 25 µg/mL (≈ 56.5 µM)
MIC [20]: 0.78 µg/mL (≈ 1.76 µM)
MIC [21]: 0.1 µg/mL (≈ 0.226 µM)
MIC [22]: 0.2 µg/mL (≈ 0.452 µM)
MIC [23]: 3.13 µg/mL (≈ 7.07 µM)
MIC [24]: 0.2 µg/mL (≈ 0.452 µM)
Antibacterial activity against gram-positive bacteria containing Streptococcus spp., in words [25]: more potent against gram-positive bacteria containing Streptococcus spp.
Level in lung, liver and kidney relative to serum, in words ([26]; both species): higher than those in serum
Transferability in tissues, in words ([26]; mice and rats): very excellent
Tmax ([26]; serum, mice and rats, read-out: Time to peak serum level): 30 to 60 min
